From patent US7084239B1, “Cancer peptides of NY-ESO-1/CAG-3” (The United States of America as represented by the …, priority 1997, dated 2006)
“Also recorded” adds a separate entry of the source.

Assays:
CTL clone 2 = assay: T cell recognition (GM-CSF release) of peptide-pulsed EBV B cells by CTL clone 2; format: cell-based, human; conditions: peptide pulsed onto 1510EBV or 586EBV B cells
Description: FIGS. 7A–7C. An alternative open reading frame of the NY-ESO-1 gene and antigenic peptides recognized by CTL. FIG. 7A. Identification of antigenic peptides from the ORF2. Thirty peptides were synthesized based on all potential ORFs and screened. Representative data are shown here. Seven peptides derived from ORF2 (see FIG. 3A) were pulsed on HLA-A31 positive 1510EBV B cells and tested for T cell recognition based on GM-CSF release ([…], SEQ ID NO: 123; […], SEQ ID NO: 124; […], SEQ ID NO: 125; […], SEQ ID NO: 46; […], SEQ ID NO: 47; […], SEQ ID NO: 126; and […], SEQ ID NO: 127). 1510 EBV alone was used as a negative control. FIG. 7B. 1510EBV B cells were labeled with chromium for 2 h. The ESORF2-10-18 peptide was then pulsed on the chromium-labeled […] (solid square) and HLA-A31-negative 1102EBV (open circle) at different concentrations. 1510EBV pulsed with ESO10-53, which was recognized by CTL clone 5, was used for the specificity control (solid triangle). After peptide incubation and three washes, cytolysis of target cells by CTL-clone 2 was determined in a 4-h chromium release assay at an E:T ratio of 20:1. FIG. 7C. Several tumor lines and fresh breast tumors were tested for recognition by CTL clone 2 to determine whether the ORF2 is translated in different tumors. 1510EBV B cells pulsed with […] (SEQ ID NO: 25) (ESO10-53), […] (SEQ ID NO: 47) (ORF2-10-18), or alone were included to evaluate the reactivity and specificity of CTL clone 2 and 5. Expression of HLA-A31 on the tumor cells is indicated.
DNA transfection and GM-CSF assay were done as previously described (Wang, R. F., P. F. Robbins, Y. Kawakami, X. Q. Kang, and S. A. Rosenberg, 1995, J. Exp. Med. 181:799–804). Briefly, […] of DNA carrying a different fragment and 50 ng of the HLA-A31 DNA were mixed with 2 μl of lipofectamine in 100 μl of serum-free DMEM for 15–45 min. The DNA/lipofectamine mixture was then added to the COS-7 (5×10^4) cells and incubated overnight. The following day, cells were washed twice with DMEM medium. TIL586, CTL clone 5 or CTL clone 10 were added at a concentration of 5×10^4 cells/well in AIM-V medium containing 120 IU/ml of IL-2. After 18–24 h incubation, 100 μl of supernatant was collected and GM-CSF was measured in a standard ELISA assay (R+D Systems, Minneapolis, Minn.). […]
CTL clone 5 and TIL1244 were used for the specificity controls. […] To test the hypothesis that CTL may recognize a peptide from a gene product translated from an alternative open reading frame of the same gene, synthetic peptides were made with HLA-A31 Binding motif on the basis of amino acid sequence predicted from the second open reading frames (ORF2) (FIG. 3A). […]

CTL clone 5 = assay: GM-CSF release by CTL clone 5 on peptide-pulsed EBV B cells; format: cell-based, human
Experimental: DNA transfection and GM-CSF assay were done as previously described (Wang, R. F., P. F. Robbins, Y. Kawakami, X. Q. Kang, and S. A. Rosenberg, 1995, J. Exp. Med. 181:799–804). Briefly, […] of DNA carrying a different fragment and 50 ng of the HLA-A31 DNA were mixed with 2 μl of lipofectamine in 100 μl of serum-free DMEM for 15–45 min. The DNA/lipofectamine mixture was then added to the COS-7 (5×10^4) cells and incubated overnight. The following day, cells were washed twice with DMEM medium. TIL586, CTL clone 5 or CTL clone 10 were added at a concentration of 5×10^4 cells/well in AIM-V medium containing 120 IU/ml of IL-2. After 18–24 h incubation, 100 μl of supernatant was collected and GM-CSF was measured in a standard ELISA assay (R+D Systems, Minneapolis, Minn.). For peptides, 586EBV, 1510EBV and T2 cells were incubated with peptides at 37° C. for 90 min, and then washed three times with AIM-V medium containing 120 IU/ml of IL-2. T cells were added and incubated for additional 18–24 h, 100 μl of supernatant was collected for GM-CSF assay. In some experiments, IFN-γ release assays were done using a standard ELISA kit (Endogen, Woburn, Mass.).
These peptides were pulsed onto HLA-A31-positive 1510EBV B cells and tested for their ability to stimulate cytokine release by CTL clone 5. […] CTL clone 10 recognized the same peptide as CTL clone 5 (data not shown). […] The reactivity of CTL clone 5 was undetectable when either the ESO9-54 or the ESO10-127 peptides were used at concentrations below 100 nM to sensitize EBV cells.

ASGPGGGAPR (listed as Homo sapiens) [ESO10-53]
Recognition by CTL clone 2, in words (CTL clone 2): did not recognize
Recognition by CTL clone 2, in words (CTL clone 2; listed as ESO 10-53): failed to recognize
GM-CSF release by CTL clone 5, EXPT. 2 (586EBV) (CTL clone 5; 586EBV cells, peptide 0.1 μg/ml for 90 min, 5 × 10^4 CTL clone 5): 1044 (SEQ. ID NO: 25)
CTL clone 5 GM-CSF release (CTL clone 5; 1510EBV cells incubated with peptide at 0.1 μg/ml for 90 min): >2000 (SEQ. ID NO: 25) pg/ml
GM-CSF release by CTL clone 5, EXPT. 1 (1510EBV) (CTL clone 5; 1510EBV cells, peptide 0.1 μg/ml for 90 min, 5 × 10^4 CTL clone 5): 1097
Plateau of GM-CSF release from CTL clone 5 in peptide titration (CTL clone 5; at 10 μM peptide concentration (FIG. 5A)): no plateau was reached
Recognition by CTL clone 5 (cytokine release), in words (CTL clone 5; peptide pulsed onto HLA-A31-positive 1510EBV or 586EBV B cells): strongly recognized; also recorded: recognized
Peptide concentration at which CTL clone 5 reactivity is detectable (CTL clone 5; peptide titration on EBV B cells, GM-CSF release): ≤ 10 nM
